Laboratory results: paper PMC6544242, “Development and validation of a multiplex UHPLC-MS/MS method for the determination of the investigational antibiotic against multi-resistant tuberculosis macozinone (PBTZ169) and five active metabolites in human plasma” (PLoS ONE, 2019)

System: not given
Assay: not given
Conditions: human, 1 h, 10 ng/mL

Structure (SMILES) | % from t0
O=c1nc(N2CCN(CC3(O)CCCCC3)CC2)sc2c([N+](=O)[O-])cc(C(F)(F)F)cc12 [Met 1-OH] | 4%

Same assay, conditions: human, 1 h, 20 ng/mL

Structure (SMILES) | % from t0
O=c1nc(N2CCN(CC3(O)CCCCC3)CC2)sc2c([N+](=O)[O-])cc(C(F)(F)F)cc12 [Met 1-OH] | 3%

Same assay, conditions: human, 1 h, 50 ng/mL

Structure (SMILES) | % from t0
O=c1nc(N2CCN(CC3(O)CCCCC3)CC2)sc2c([N+](=O)[O-])cc(C(F)(F)F)cc12 [Met 1-OH] | -1%

Same assay, conditions: human, 1 h, 100 ng/mL

Structure (SMILES) | % from t0
O=c1nc(N2CCN(CC3(O)CCCCC3)CC2)sc2c([N+](=O)[O-])cc(C(F)(F)F)cc12 [Met 1-OH] | 2%

Same assay, conditions: human, 1 h, 200 ng/mL

Structure (SMILES) | % from t0
O=c1nc(N2CCN(CC3(O)CCCCC3)CC2)sc2c([N+](=O)[O-])cc(C(F)(F)F)cc12 [Met 1-OH] | -1%

Same assay, conditions: human, 1 h, 500 ng/mL

Structure (SMILES) | % from t0
O=c1nc(N2CCN(CC3(O)CCCCC3)CC2)sc2c([N+](=O)[O-])cc(C(F)(F)F)cc12 [Met 1-OH] | -4%

Same assay, conditions: human, 2 h, 10 ng/mL

Structure (SMILES) | % from t0
O=c1nc(N2CCN(CC3(O)CCCCC3)CC2)sc2c([N+](=O)[O-])cc(C(F)(F)F)cc12 [Met 1-OH] | 1%

Same assay, conditions: human, 2 h, 20 ng/mL

Structure (SMILES) | % from t0
O=c1nc(N2CCN(CC3(O)CCCCC3)CC2)sc2c([N+](=O)[O-])cc(C(F)(F)F)cc12 [Met 1-OH] | -2%

Same assay, conditions: human, 2 h, 50 ng/mL

Structure (SMILES) | % from t0
O=c1nc(N2CCN(CC3(O)CCCCC3)CC2)sc2c([N+](=O)[O-])cc(C(F)(F)F)cc12 [Met 1-OH] | -4%

Same assay, conditions: human, 2 h, 100 ng/mL

Structure (SMILES) | % from t0
O=c1nc(N2CCN(CC3(O)CCCCC3)CC2)sc2c([N+](=O)[O-])cc(C(F)(F)F)cc12 [Met 1-OH] | 0%

Same assay, conditions: human, 2 h, 200 ng/mL

Structure (SMILES) | % from t0
O=c1nc(N2CCN(CC3(O)CCCCC3)CC2)sc2c([N+](=O)[O-])cc(C(F)(F)F)cc12 [Met 1-OH] | -3%

Same assay, conditions: human, 2 h, 500 ng/mL

Structure (SMILES) | % from t0
O=c1nc(N2CCN(CC3(O)CCCCC3)CC2)sc2c([N+](=O)[O-])cc(C(F)(F)F)cc12 [Met 1-OH] | -6%

Same assay, conditions: human, 4 h, 10 ng/mL

Structure (SMILES) | % from t0
O=c1nc(N2CCN(CC3(O)CCCCC3)CC2)sc2c([N+](=O)[O-])cc(C(F)(F)F)cc12 [Met 1-OH] | -1%

Same assay, conditions: human, 4 h, 20 ng/mL

Structure (SMILES) | % from t0
O=c1nc(N2CCN(CC3(O)CCCCC3)CC2)sc2c([N+](=O)[O-])cc(C(F)(F)F)cc12 [Met 1-OH] | 0%

Same assay, conditions: human, 4 h, 50 ng/mL

Structure (SMILES) | % from t0
O=c1nc(N2CCN(CC3(O)CCCCC3)CC2)sc2c([N+](=O)[O-])cc(C(F)(F)F)cc12 [Met 1-OH] | -9%

Same assay, conditions: human, 4 h, 100 ng/mL

Structure (SMILES) | % from t0
O=c1nc(N2CCN(CC3(O)CCCCC3)CC2)sc2c([N+](=O)[O-])cc(C(F)(F)F)cc12 [Met 1-OH] | -2%

Same assay, conditions: human, 4 h, 200 ng/mL

Structure (SMILES) | % from t0
O=c1nc(N2CCN(CC3(O)CCCCC3)CC2)sc2c([N+](=O)[O-])cc(C(F)(F)F)cc12 [Met 1-OH] | -4%

Same assay, conditions: human, 4 h, 500 ng/mL

Structure (SMILES) | % from t0
O=c1nc(N2CCN(CC3(O)CCCCC3)CC2)sc2c([N+](=O)[O-])cc(C(F)(F)F)cc12 [Met 1-OH] | -11%

System: Mycobacterium tuberculosis
Assay: not given
Conditions: not measured in this paper; cited from earlier work

Structure (SMILES) | anti-TB activity in vitro (active / inactive)
O=c1nc(N2CCN(CC3(O)CCCCC3)CC2)sc2c([N+](=O)[O-])cc(C(F)(F)F)cc12 [Met 1-OH] | active

System: not given
Assay: not given
Conditions: human, 6 h, 0.5 ng/mL

Structure (SMILES) | % from freshly processed samples (n=2)
O=c1nc(N2CCN(CC3(O)CCCCC3)CC2)sc2c([N+](=O)[O-])cc(C(F)(F)F)cc12 [Met 1-OH] | -15%

Same assay, conditions: human, 6 h, 1 ng/mL

Structure (SMILES) | % from freshly processed samples (n=2)
O=c1nc(N2CCN(CC3(O)CCCCC3)CC2)sc2c([N+](=O)[O-])cc(C(F)(F)F)cc12 [Met 1-OH] | -9%

Same assay, conditions: human, 6 h, 2 ng/mL

Structure (SMILES) | % from freshly prepared samples | % from freshly processed samples (n=2)
O=c1nc(N2CCN(CC3(O)CCCCC3)CC2)sc2c([N+](=O)[O-])cc(C(F)(F)F)cc12 [Met 1-OH] | -4% | -4%

Same assay, conditions: human, 6 h, 50 ng/mL

Structure (SMILES) | % from freshly processed samples (n=2)
O=c1nc(N2CCN(CC3(O)CCCCC3)CC2)sc2c([N+](=O)[O-])cc(C(F)(F)F)cc12 [Met 1-OH] | -1%

Same assay, conditions: human, 6 h, 150 ng/mL

Structure (SMILES) | % from freshly prepared samples
O=c1nc(N2CCN(CC3(O)CCCCC3)CC2)sc2c([N+](=O)[O-])cc(C(F)(F)F)cc12 [Met 1-OH] | -3%

Same assay, conditions: human, 6 h, 500 ng/mL

Structure (SMILES) | % from freshly processed samples (n=2)
O=c1nc(N2CCN(CC3(O)CCCCC3)CC2)sc2c([N+](=O)[O-])cc(C(F)(F)F)cc12 [Met 1-OH] | -1%

Same assay, conditions: human, 6 h, 1000 ng/mL

Structure (SMILES) | % from freshly processed samples (n=2)
O=c1nc(N2CCN(CC3(O)CCCCC3)CC2)sc2c([N+](=O)[O-])cc(C(F)(F)F)cc12 [Met 1-OH] | 0%

Same assay, conditions: human, 6 h, 1500 ng/mL

Structure (SMILES) | % from freshly prepared samples
O=c1nc(N2CCN(CC3(O)CCCCC3)CC2)sc2c([N+](=O)[O-])cc(C(F)(F)F)cc12 [Met 1-OH] | -2%

Same assay, conditions: human, 6 h, 2000 ng/mL

Structure (SMILES) | % from freshly processed samples (n=2)
O=c1nc(N2CCN(CC3(O)CCCCC3)CC2)sc2c([N+](=O)[O-])cc(C(F)(F)F)cc12 [Met 1-OH] | -1%

System: not given
Assay: not given
Conditions: processed extract sample, 4°C, 24h, level H (QC 1500 ng/mL)

Structure (SMILES) | % from t0
O=c1nc(N2CCN(CC3(O)CCCCC3)CC2)sc2c([N+](=O)[O-])cc(C(F)(F)F)cc12 [Met 1-OH] | -2%

Same assay, conditions: processed extract sample, 4°C, 24h, level L (QC 2 ng/mL)

Structure (SMILES) | % from t0
O=c1nc(N2CCN(CC3(O)CCCCC3)CC2)sc2c([N+](=O)[O-])cc(C(F)(F)F)cc12 [Met 1-OH] | -12%

Same assay, conditions: processed extract sample, 4°C, 24h, level M (QC 150 ng/mL)

Structure (SMILES) | % from t0
O=c1nc(N2CCN(CC3(O)CCCCC3)CC2)sc2c([N+](=O)[O-])cc(C(F)(F)F)cc12 [Met 1-OH] | -9%

Same assay, conditions: processed extract sample, RT, 24h, level H (QC 1500 ng/mL)

Structure (SMILES) | % from t0
O=c1nc(N2CCN(CC3(O)CCCCC3)CC2)sc2c([N+](=O)[O-])cc(C(F)(F)F)cc12 [Met 1-OH] | -12%

Same assay, conditions: processed extract sample, RT, 24h, level L (QC 2 ng/mL)

Structure (SMILES) | % from t0
O=c1nc(N2CCN(CC3(O)CCCCC3)CC2)sc2c([N+](=O)[O-])cc(C(F)(F)F)cc12 [Met 1-OH] | -55%

Same assay, conditions: processed extract sample, RT, 24h, level M (QC 150 ng/mL)

Structure (SMILES) | % from t0
O=c1nc(N2CCN(CC3(O)CCCCC3)CC2)sc2c([N+](=O)[O-])cc(C(F)(F)F)cc12 [Met 1-OH] | -33%

System: not listed separately
Assay: Phase Ia clinical pharmacokinetic trial, plasma levels in healthy volunteers
Conditions: human, in vivo
Procedure: The phase 1a clinical study assessing the safety and pharmacokinetics of PBTZ169 in healthy volunteers (NCT03423030), was performed at the Service of Clinical Pharmacology of the Lausanne University Hospital and was approved on 06.09.2017 (2017–01241) by the Ethics Committee of the Canton of Vaud (CER-VD) and on 17.11.2017 (2017DR1171) by Swissmedic. All volunteers gave their written informed consent.
The concentration measured in this plasma sample is 464 ng/mL, 147 ng/mL, 13 ng/mL, 12 ng/mL and 2 ng/mL for PBTZ169, Met 3-OH, Met 3-oxo, Met amino and Met 1-OH, respectively. […] Of note, measured plasma levels were multiplied by the factor 1.1 accounting for the blood 10:1 dilution due to citrate solution.

Structure (SMILES) | plasma levels in volunteers
O=c1nc(N2CCN(CC3(O)CCCCC3)CC2)sc2c([N+](=O)[O-])cc(C(F)(F)F)cc12 [Met 1-OH] | below 0.5 ng/mL
